The values below come from ChEMBL document CHEMBL1135039, “A novel synthesis of 2-arylpyrrolo[1,2-a]pyrimid-7-ones and their structure-activity relationships as potent GnRH receptor antagonists” (Bioorg Med Chem Lett, 2002).

The assay deals with T1, Gonadotropin-releasing hormone receptor (Homo sapiens, UniProt P30968).
T1 sequence (P30968 whole entry): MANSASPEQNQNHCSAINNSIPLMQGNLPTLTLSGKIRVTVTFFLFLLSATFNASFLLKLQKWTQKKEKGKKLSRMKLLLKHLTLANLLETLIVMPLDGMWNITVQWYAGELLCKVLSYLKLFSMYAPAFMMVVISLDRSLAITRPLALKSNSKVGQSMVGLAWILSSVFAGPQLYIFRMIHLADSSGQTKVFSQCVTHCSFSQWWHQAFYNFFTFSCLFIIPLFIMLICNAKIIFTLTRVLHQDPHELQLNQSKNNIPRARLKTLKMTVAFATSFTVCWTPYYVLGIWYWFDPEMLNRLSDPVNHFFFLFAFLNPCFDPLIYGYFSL
The experiment in a line: Binding affinity to human gonadotropin-releasing hormone (hGnRH) receptor expressed in HEK293 cells using des-Gly10[125I-Tyr,5DLeu,6NMeLeu,7Pro9-NEt]GnRH radioligand. The class given is cell-based.

`CCCC(=O)Nc1ccc(-c2cc3n(Cc4ccccc4F)cc(C(=O)NC4CCCCC4)c(=O)n3c2CN(C)CCc2ccccn2)cc1`: the affinity corresponds to a Ki of 32 nM.

As for `CCOC(=O)c1cn(Cc2ccccc2F)c2cc(-c3ccc(NC(=O)C(C)C)cc3)c(CN(C)Cc3ccccc3)n2c1=O`, the affinity, expressed as Ki, was 44 nM.

Regarding `CCCCCCNC(=O)c1cn(Cc2ccccc2F)c2cc(-c3ccc(NC(=O)CCC)cc3)c(CN(C)CCc3ccccn3)n2c1=O`, the affinity, expressed as Ki, was 3.3 nM.

In the case of `CCCC(=O)Nc1ccc(-c2cc3n(Cc4ccccc4F)cc(C(=O)OCC)c(=O)n3c2CN(C)CCc2ccccn2)cc1`, affinity was put at a Ki of 1.2 nM.

`CCCC(=O)Nc1ccc(-c2cc3n(Cc4ccccc4F)cc(C(=O)NCCCc4ccccc4)c(=O)n3c2CN(C)CCc2ccccn2)cc1`: the Ki (usually the dissociation constant of the complex between target and ligand, obtained from inhibition or displacement) is 1.1 nM.

In the case of `CCOC(=O)c1cn(Cc2ccccc2F)c2cc(-c3ccc(OC)cc3)c(CN(C)CCc3ccccn3)n2c1=O`, the Ki was 55 nM.

Consider `CCCCNC(=O)c1cn(Cc2ccccc2F)c2cc(-c3ccc(NC(=O)CCC)cc3)c(CN(C)CCN(CC)CC)n2c1=O`, for which the Ki turned out to be 440 nM.

Consider `CCC(CC)OC(=O)c1cn(Cc2ccccc2F)c2cc(-c3ccc(N)cc3)c(CN(C)Cc3ccccc3)n2c1=O`, for which the inhibition constant Ki amounted to 100 nM.

As for `CCCCNC(=O)c1cn(Cc2ccccc2F)c2cc(-c3ccc(NC(=O)CCC)cc3)c(CN(C)Cc3ccccc3)n2c1=O`, the affinity corresponds to a Ki of 154 nM.

As for `CN(CCc1ccccn1)Cc1c(-c2ccc([N+](=O)[O-])cc2)cc2n(Cc3ccccc3F)cc(-c3nc(C(C)(C)C)co3)c(=O)n12`, the inhibition constant Ki stood at 64 nM.

For the compound `CCOC(=O)c1cn(Cc2ccccc2F)c2cc(-c3ccc(N)cc3)c(CN(C)Cc3ccccc3)n2c1=O`, the Ki came to 190 nM.

`CCCC(=O)Nc1ccc(-c2cc3n(Cc4ccccc4F)cc(C(=O)OC(CC)CC)c(=O)n3c2CN(C)CCN(CC)CC)cc1` displayed an inhibitory constant (Ki) of 5.8 nM.

Compound `CCCCNC(=O)c1cn(Cc2ccccc2F)c2cc(-c3ccc(NC(=O)CCC)cc3)c(CN(C)CCc3ccccn3)n2c1=O` gave a Ki of 10 nM.

On to `CCCC(=O)Nc1ccc(-c2cc3n(Cc4ccccc4F)cc(C(=O)OC(CC)CC)c(=O)n3c2CN(C)C)cc1`, for which the Ki worked out at 130 nM.

Consider `CCCC(=O)Nc1ccc(-c2cc3n(Cc4ccccc4F)cc(C(=O)OC(CC)CC)c(=O)n3c2CN(C)Cc2ccccc2)cc1`, for which the affinity corresponds to a Ki of 3.8 nM.

In turn, `CN(CCc1ccccn1)Cc1c(-c2ccc([N+](=O)[O-])cc2)cc2n(Cc3ccccc3F)cc(C3=NC(C)(C)CO3)c(=O)n12` displayed a Ki of 270 nM.

For `CCC(CC)OC(=O)c1cn(Cc2ccccc2F)c2cc(-c3ccc(OC)cc3)c(CN(C)Cc3ccccc3)n2c1=O`, the inhibitory constant (Ki) was 62 nM.

Take `CCOC(=O)c1cn(Cc2ccccc2F)c2cc(-c3ccc(OC)cc3)c(CN(C)Cc3ccccc3)n2c1=O`: the affinity, expressed as Ki, was 400 nM.

With `CCCC(=O)Nc1ccc(-c2cc3n(Cc4ccccc4F)cc(C(=O)OC(CC)CC)c(=O)n3c2CN(C)CCc2ccccc2)cc1`, the inhibition constant (Ki) turned out to be 2.1 nM.

Consider `CCOC(=O)c1cn(Cc2ccccc2F)c2cc(-c3ccc(NC(C)=O)cc3)c(CN(C)Cc3ccccc3)n2c1=O`, for which the affinity corresponds to a Ki of 42 nM.

The compound `CCC(CC)OC(=O)c1cn(Cc2ccccc2F)c2cc(-c3ccc(NC(C)=O)cc3)c(CN(C)Cc3ccccc3)n2c1=O` gave a Ki of 4 nM.

As to `CCCC(=O)Nc1ccc(-c2cc3n(Cc4ccccc4F)cc(C(=O)OC(CC)CC)c(=O)n3c2CN(C)CCc2ccccn2)cc1`, the Ki worked out at 2.7 nM.

The compound `CCCC(=O)Nc1ccc(-c2cc3n(Cc4ccccc4F)cc(C(=O)NCCCc4ccccc4)c(=O)n3c2CN(C)Cc2ccccc2)cc1` came in with a Ki of 17 nM.

Take `CCC(CC)OC(=O)c1cn(Cc2ccccc2F)c2cc(-c3ccc(NC(C)=O)cc3)c(CN(C)CCc3ccccn3)n2c1=O`: the Ki was found to be 2.8 nM.

For the compound `CCCC(=O)Nc1ccc(-c2cc3n(Cc4ccccc4F)cc(C(=O)NC(CC)CC)c(=O)n3c2CN(C)CCc2ccccn2)cc1`, the Ki stood at 21 nM.

Consider `CCCC(=O)Nc1ccc(-c2cc3n(Cc4ccccc4F)cc(C(=O)NC4CCCC4)c(=O)n3c2CN(C)CCc2ccccn2)cc1`, for which the inhibition constant Ki amounted to 9.2 nM.

In the case of `CCOC(=O)c1cn(Cc2ccccc2F)c2cc(-c3ccc(NC(=O)C(C)C)cc3)c(CN(C)CCc3ccccn3)n2c1=O`, affinity was put at a Ki of 14 nM.

Compound `CCCC(=O)Nc1ccc(-c2cc3n(Cc4ccccc4F)cc(C(=O)NCCOC)c(=O)n3c2CN(C)CCc2ccccn2)cc1` had a Ki of 630 nM.

With `CCOC(=O)c1cn(Cc2ccccc2F)c2cc(-c3ccc([N+](=O)[O-])cc3)c(CN(C)Cc3ccccc3)n2c1=O`, affinity was put at a Ki of 450 nM.

For `CCC(CC)OC(=O)c1cn(Cc2ccccc2F)c2cc(-c3ccc(OC)cc3)c(CN(C)CCc3ccccn3)n2c1=O`, the affinity, expressed as Ki, was 14 nM.
